#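 Compound exposure: 48 hours, 5 concentrations, 96-well plates. GI50 = concentration required for 50% inhibition of growth.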 The source made the active and inactive calls. Rule as the data show it: active = GI50 up to about 1.1 µM and inactive = higher.
# Tests used:
# Experiment in all cases: growth of human tumour cells (NCI), 48 h
# KM12 = system: KM12
# MDA-MB-435 = system: MDA-MB-435
# SK-MEL-5 = system: SK-MEL-5
# A549 = system: A549
# NCI-H522 = system: NCI-H522
# IGROV-1 = system: IGROV-1
# 786-0 = system: 786-0
# COLO 205 = system: COLO 205
# M14 = system: M14
# Malme-3M = system: Malme-3M
# MDA-MB-231 = system: MDA-MB-231
# TK-10 = system: TK-10
# OVCAR-8 = system: OVCAR-8
# U-251 = system: U-251
# PC-3 = system: PC-3
# NCI-H226 = system: NCI-H226
# HCC 2998 = system: HCC 2998
# HCT-15 = system: HCT-15
# A498 = system: A498
# UACC-62 = system: UACC-62
# SF-295 = system: SF-295
# RPMI-8226 = system: RPMI-8226
# EKVX = system: EKVX
# UACC-257 = system: UACC-257
# OVCAR-3 = system: OVCAR-3
# SK-MEL-2 = system: SK-MEL-2
# NCI/ADR-RES = system: NCI/ADR-RES
# SW-620 = system: SW-620
# OVCAR-5 = system: OVCAR-5
# SK-MEL-28 = system: SK-MEL-28
# LOX IMVI = system: LOX IMVI
# HL-60 = system: HL-60
# SNB-19 = system: SNB-19
# CCRF-CEM = system: CCRF-CEM
# ACHN = system: ACHN
# OVCAR-4 = system: OVCAR-4
# CAKI-1 = system: CAKI-1
# Hs-578T = system: Hs-578T
# HOP-92 = system: HOP-92
# SF-268 = system: SF-268
# MCF7 = system: MCF7
# DU-145 = system: DU-145
# NCI-H460 = system: NCI-H460
# T47D = system: T47D
# RXF 393 = system: RXF 393
# BT-549 = system: BT-549
# SNB-75 = system: SNB-75
# K562 = system: K562
# SR = system: SR
# SF-539 = system: SF-539
# SN12C = system: SN12C
# MOLT-4 = system: MOLT-4
# NCI-H23 = system: NCI-H23
# HOP-62 = system: HOP-62
# UO-31 = system: UO-31
# SK-OV-3 = system: SK-OV-3
# HCT-116 = system: HCT-116
# HT-29 = system: HT-29
structure (smiles),measurement,setting,value
CC(C)(O)c1cc2c(cc1C(C)(C)O)-c1ccccc1-2,GI50,KM12,> 100 µM (inactive)
same,GI50,MDA-MB-435,> 100 µM (inactive)
same,GI50,SK-MEL-5,> 100 µM (inactive)
same,GI50,A549,> 100 µM (inactive)
same,GI50,NCI-H522,> 100 µM (inactive)
same,GI50,IGROV-1,> 100 µM (inactive)
same,GI50,786-0,79.8 µM (inactive)
same,GI50,COLO 205,> 100 µM (inactive)
same,GI50,M14,> 100 µM (inactive)
same,GI50,Malme-3M,> 100 µM (inactive)
same,GI50,MDA-MB-231,> 100 µM (inactive)
same,GI50,TK-10,> 100 µM (inactive)
same,GI50,OVCAR-8,> 100 µM (inactive)
same,GI50,U-251,> 100 µM (inactive)
same,GI50,PC-3,> 100 µM (inactive)
same,GI50,NCI-H226,> 100 µM (inactive)
same,GI50,HCC 2998,> 100 µM (inactive)
same,GI50,HCT-15,> 100 µM
same,GI50,A498,> 100 µM (inactive)
same,GI50,UACC-62,36.2 µM (inactive)
same,GI50,SF-295,67.1 µM (inactive)
same,GI50,RPMI-8226,> 100 µM (inactive)
same,GI50,EKVX,59.7 µM (inactive)
same,GI50,UACC-257,> 100 µM (inactive)
same,GI50,OVCAR-3,> 100 µM (inactive)
same,GI50,SK-MEL-2,> 100 µM (inactive)
same,GI50,NCI/ADR-RES,> 100 µM (inactive)
same,GI50,SW-620,> 100 µM (inactive)
same,GI50,OVCAR-5,> 100 µM (inactive)
same,GI50,SK-MEL-28,> 100 µM (inactive)
same,GI50,LOX IMVI,> 100 µM (inactive)
same,GI50,HL-60,> 100 µM (inactive)
same,GI50,SNB-19,> 100 µM (inactive)
same,GI50,CCRF-CEM,> 100 µM (inactive)
same,GI50,ACHN,85.3 µM (inactive)
same,GI50,OVCAR-4,> 100 µM (inactive)
same,GI50,CAKI-1,> 100 µM (inactive)
same,GI50,Hs-578T,29.6 µM (inactive)
same,GI50,HOP-92,17.9 µM (inactive)
same,GI50,SF-268,43.8 µM (inactive)
same,GI50,MCF7,> 100 µM (inactive)
same,GI50,DU-145,> 100 µM (inactive)
same,GI50,NCI-H460,> 100 µM (inactive)
same,GI50,T47D,> 100 µM (inactive)
same,GI50,RXF 393,71.9 µM (inactive)
same,GI50,BT-549,> 100 µM (inactive)
same,GI50,SNB-75,29.2 µM (inactive)
same,GI50,K562,> 100 µM (inactive)
same,GI50,SR,> 100 µM (inactive)
same,GI50,SF-539,> 100 µM (inactive)
same,GI50,SN12C,> 100 µM (inactive)
same,GI50,MOLT-4,> 100 µM (inactive)
COC(=O)C1C(O)C(C)C(=O)C(C)/C=C\C=C(C)C(=O)Nc2c(C)c(OC(C)=O)c3c(c2O)C(=O)C(C)=C2OCOC(=C23)C(C)=CC(C)(O)C(O)C(C)C1O (stereo not drawn),GI50,KM12,36.6 µM (inactive)
same,GI50,MDA-MB-435,39.2 µM (inactive)
same,GI50,SK-MEL-5,14.5 µM (inactive)
same,GI50,A549,20.2 µM (inactive)
same,GI50,NCI-H23,17.5 µM (inactive)
same,GI50,NCI-H522,43.5 µM (inactive)
same,GI50,IGROV-1,21.7 µM (inactive)
same,GI50,786-0,54.6 µM (inactive)
same,GI50,COLO 205,25.1 µM (inactive)
same,GI50,M14,25.4 µM (inactive)
same,GI50,Malme-3M,22.2 µM (inactive)
same,GI50,MDA-MB-231,> 100 µM (inactive)
same,GI50,OVCAR-8,33.7 µM (inactive)
same,GI50,U-251,96.8 µM (inactive)
same,GI50,PC-3,25.1 µM (inactive)
same,GI50,NCI-H226,46.7 µM (inactive)
same,GI50,HCC 2998,21 µM (inactive)
same,GI50,HCT-15,21.6 µM
same,GI50,A498,24.9 µM (inactive)
same,GI50,UACC-62,21.7 µM (inactive)
same,GI50,SF-295,62.2 µM (inactive)
same,GI50,RPMI-8226,> 100 µM (inactive)
same,GI50,EKVX,65.2 µM (inactive)
same,GI50,UACC-257,18.8 µM (inactive)
same,GI50,OVCAR-3,42.4 µM (inactive)
same,GI50,SK-MEL-2,25.2 µM (inactive)
same,GI50,NCI/ADR-RES,46.9 µM (inactive)
same,GI50,SW-620,33.8 µM (inactive)
same,GI50,OVCAR-5,29 µM (inactive)
same,GI50,SK-MEL-28,27.4 µM (inactive)
same,GI50,LOX IMVI,24.9 µM (inactive)
same,GI50,HL-60,18.6 µM (inactive)
same,GI50,HOP-62,> 100 µM (inactive)
same,GI50,UO-31,23.5 µM (inactive)
same,GI50,SNB-19,> 100 µM (inactive)
same,GI50,CCRF-CEM,20 µM (inactive)
same,GI50,ACHN,26.2 µM (inactive)
same,GI50,CAKI-1,44.2 µM (inactive)
same,GI50,Hs-578T,37.4 µM (inactive)
same,GI50,HOP-92,50.5 µM (inactive)
same,GI50,SF-268,99.8 µM (inactive)
same,GI50,MCF7,27.4 µM (inactive)
same,GI50,SK-OV-3,> 100 µM (inactive)
same,GI50,HCT-116,24.9 µM (inactive)
same,GI50,DU-145,15 µM (inactive)
same,GI50,NCI-H460,32.7 µM (inactive)
same,GI50,T47D,33.3 µM (inactive)
same,GI50,RXF 393,31.1 µM (inactive)
same,GI50,BT-549,42 µM (inactive)
same,GI50,SNB-75,49 µM (inactive)
same,GI50,K562,19.1 µM (inactive)
same,GI50,SR,30.3 µM (inactive)
same,GI50,HT-29,29.9 µM (inactive)
same,GI50,SF-539,47.4 µM (inactive)
same,GI50,SN12C,31.4 µM (inactive)
same,GI50,MOLT-4,29.4 µM (inactive)

# From ChEMBL document CHEMBL1201862, “PubChem BioAssay data set” (2004)
